The test has as its target T1, IL-4 (Homo sapiens, UniProt P05112).
T1 construct: purchased Acros Biosystems IL4-H4218; host or cells: HEK-293
T1 sequence (P05112 25-153): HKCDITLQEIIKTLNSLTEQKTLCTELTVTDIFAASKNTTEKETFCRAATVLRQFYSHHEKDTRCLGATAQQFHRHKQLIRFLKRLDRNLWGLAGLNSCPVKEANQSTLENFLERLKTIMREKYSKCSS
Description: HEK-Blue IL-4/IL-13 reporter assay, IL-4 inhibition. Type of test: cell-based. To be noted: for % Inhibition / inhibition at 10 µM: 10 μM, IL-4, HEK Blue IL-4/IL-13 reporter assay; for inhibition at 10 µM: HEK-Blue; for EC50: HEK Blue IL-4/IL-13 reporter assay, read-out: EC50. How it is done:
HEK-Blue IL-4/IL-13 Inhibition assay. HEK-Blue IL-4/IL-13 reporter cell lines were purchased from Invivogen and cultured in DMEM with 10% Heat Inactivated Fetal Bovine Serum (FBS), 100 U/ml-100 μg/ml Pen-Strep, 10 μg/ml blasticidin, 100 μg/ml Normocin and 100 μg/ml Zeocin. Cells were tested for secreted embryonic alkaline phosphatase (SEAP) production induced by IL-4 alone prior to small molecule screening.
22.5 μl of small molecule in DMEM 4% DMSO was added to 22.5 μl of 1 ng/ml IL-4 in DMEM in a non-binding 96-well reaction plate for 30 minutes at room temperature. The reaction plate was further incubated for 30-60 min at 37° C. HEK-Blue IL-4/IL-13 reporter cell line was used between passages 11-17. […] Measurements were done in triplicate. The plate was incubated for ˜22-24 hours at 37° C./5% CO2. Quanti-Blue dye was prepared as per the manufacturer's recommendation and 160 μl was dispensed in each well of a 96-well plate (avoid edges to avoid evaporation), 40 μl of cell supernatant was added to the same plate and incubated for 3 hours at 37° C./5% CO2. Optical density was then measured at 650 nm using Molecular Devices SpectraMax M5 Microplate reader. Data was analyzed and plotted using GraphPad Prism 9.2.0.
A general note: Reporter assays use an easily measured gene product as a stand-in for the process of interest.

Several values for one entry are separate records, joined by “and”; a condition that tells them apart may be missing. Identical values can stand only once. Like-named read-outs stand apart in the source and are kept apart here.

What is called % Inhibition is the relative decrease from the control value, in per cent. As usually defined, the inhibition is how much of the control response was suppressed. By EC50 is commonly meant the concentration needed to bring the measured effect to its halfway point.

Turning to `N#Cc1c(-c2ccc(O)c(O)c2)cc(-c2ccccc2F)nc1N` [Compound 2, 2-amino-4-(3A-dihydroxyphenyl)-6-(2-fluorophenyl)nicotinonitrile], the “% Inhibition” value was determined as 40.0 ± 5.87%.
As for `N#Cc1c(-c2ccc(O)c(Br)c2)cc(-c2ccc(F)cc2)[nH]c1=N` [Compound 52, 4-(3-bromo-4-hydroxyphenyl)-6(4-fluorophenyl)-2-imino-1,2-dihydropyridine-3-carbonitrile], at 10 µM the inhibition was 58.8 ± 16.5%.
For the compound `N#Cc1c(-c2ccccc2O)cc(-c2ccc(F)cc2)nc1N` [Compound 47, 2-amino-6-(4-fluorophenyl)-4-(2-hydroxyphenyl)nicotinonitrile], the inhibition at 10 µM (read-out: % Inhibition) came to 98.8 ± 1.54%. Further, the EC50 (dose response, IL-4 inhibition) was 3.4 µM and 3.45 µM.
Consider `Cc1ccc(-c2cc(-c3ccc(O)c(O)c3)c(C#N)c(=N)[nH]2)cc1` [Compound 5, 4-(3,4-dihydroxyphenyl)-2-imino-6-(p-tolyl)-1,2-dihydropyridine-3-carbonitrile], for which the “% Inhibition” value is 62.7 ± 4.30% and 82.7 ± 4.30%; the inhibition at 10 µM was over 80%. Besides, under “dose response, IL-4 inhibition”, the concentration for a half-maximal effect (EC50) stood at 1.29 ± 0.47 µM.
In the case of `Cc1c(-c2ccc(F)cc2)[nH]c(=N)c(C#N)c1-c1ccc(O)c(O)c1` [Compound 20, 4-(3,4-dihydroxyphenyl)-6-(4-fluorophenyl)-2-imino-5-methyl-1,2-dihydropyridine-3-carbonitrile], the inhibition at 10 µM (read-out: % Inhibition) was determined as 97.7%. In addition, where the note is “dose response, IL-4 inhibition”, the “potency compared with Nico-52 (in words)” value was “less potency than Nico-52” and the EC50 came to 2.69 ± 0.57 µM.
As to `COc1ccc(C2=NC(=N)C(C#N)C(c3ccc(O)c(O)c3)=C2)cc1` (stereo not shown) [Compound 6, 4-(3,4-dihydroxyphenyl)-2-imino-6-(4-methoxyphenyl)-2,3-dihydropyridine-3-carbonitrile], the “% Inhibition” value is 51.7 ± 5.05%. In addition, the EC50 (dose response, IL-4 inhibition) came out at 3.02 ± 0.61 µM.
The compound `N#Cc1c(-c2ccccc2O)cc(-c2ccc(F)cc2)nc1O` [Compound 39, 6-(4-fluorophenyl)-2-hydroxy-4-(2-hydroxyphenyl)nicotinonitrile] yielded an inhibition at 10 µM of 100%. Where the note is “dose response, IL-4 inhibition”, the EC50 worked out at 1.75 µM.
For `Cc1ccc(-c2cc(-c3ccc(F)cc3)[nH]c(=N)c2C#N)o1` [Compound 44, 6-(4-fluorophenyl)-2-imino-4-(5-methylfuran-2-yl)-1,2-dihydropyridine-3-carbonitrile], the inhibition at 10 µM (read-out: % Inhibition) is 33.9 ± 21.4%.
In turn, `N#Cc1c(-c2ccc(O)c(O)c2)cc(-c2ccc3ccccc3c2)[nH]c1=N` [Compound 11, 4-(3,4-dihydroxyphenyl)-2-imino-6-(naphthalen-2-yl)-1,2-dihydropyridine-3-carbonitrile] yielded an inhibition at 10 µM of 54.7 ± 8.42%.
Turning to `Cc1ccc(-c2cc(-c3ccc(F)cc3)[nH]c(=O)c2C#N)o1` [Compound 37, 6(4-fluorophenyl)-4-(5-methylfuran-2-yl)-2-oxo-1,2-dihydropyridine-3-carbonitrile], the inhibition at 10 µM (read-out: % Inhibition) is 0.48 ± 17.1%.
In the case of `N#Cc1c(-c2ccc(O)c(O)c2)cc(-c2ccc(O)cc2)[nH]c1=N` [Compound 4, 4-(3,4-dihydroxyphenyl)-6-(4-hydroxyphenyl)-2-imino-1,2-dihydropyridine-3-carbonitrile], the “% Inhibition” value is 81.2 ± 18.9% and the inhibition at 10 µM is over 80%. The EC50 (dose response, IL-4 inhibition) was found to be 1.14 ± 0.38 µM.
Consider `N#Cc1c(-c2ccc(O)c(O)c2)cc(C2CC2)nc1N` [2A/55, 2-amino-6-cyclopropyl-4-(3,4-dihydroxyphenyl) nicotinonitrile], for which the inhibition at 10 µM (read-out: % Inhibition) was determined as 2.47 ± 14.2%.
With `N#CC1C(=N)N=C(c2cnccn2)C=C1c1ccc(O)c(O)c1` (stereo not shown) [Compound 9, 4-(3,4-dihydroxyphenyl)-2-imino-6-(pyrazin-2-yl)-2,3-dihydropyridine-3-carbonitrile], the inhibition at 10 µM (read-out: % Inhibition) was 64.2 ± 13.4%.
Compound `N#Cc1c(-c2ccc(O)c(I)c2)cc(-c2ccc(F)cc2)[nH]c1=N` [Compound 53, 6(4-fluorophenyl)-4-(4-hydroxy-3-iodophenyl)-2-imino-1,2-dihydropyridine-3-carbonitrile] returned an inhibition at 10 µM of 58.9 ± 19.9%.
For the compound `N#Cc1c(-c2ccc(O)c(O)c2)cc(-c2cccc(F)c2)nc1N` [Compound 1, 2-amino-4-(3A-dihydroxyphenyl)-6-(3-fluorophenyl)nicotinonitrile], the “% Inhibition” value is listed as “No inhibition”.
As for `Cc1cc(-c2ccc(O)c(O)c2)c(C#N)c(N)n1` [Compound 13, 2-amino-4-(3,4-dihydroxyphenyl)-6-methylnicotinonitrile], the inhibition at 10 µM (read-out: % Inhibition) is 70.2%.
`N#Cc1c(-c2ccc(O)c(C(=O)O)c2)cc(-c2ccc(N)cc2)nc1N` [Compound 33, 5-(2-amino-6-(4-aminophenyl)-3-cyanopyridin-4-yl)-2-hydroxybenzoic acid] displayed an inhibition at 10 µM of 6.63%.
The compound `N#CC1C(=O)N=C(c2ccc(O)cc2)C=C1c1ccc(O)c(O)c1` (stereo not shown) [Compound 32, 4-(3,4-dihydroxyphenyl)-6-(4-hydroxyphenyl)-2-oxo-2,3-dihydropyridine-3-carbonitrile] registered an inhibition at 10 µM of 94.1%.
Regarding `N#Cc1c(-c2ccc(O)cc2)cc(-c2ccc(F)cc2)[nH]c1=O` [Compound 41, 6(4-fluorophenyl)-4-(4-hydroxyphenyl)-2-oxo-1,2-dihydropyridine-3-carbonitrile], the inhibition at 10 µM is 60.7 ± 10.3%.
As to `Cc1ccc(-c2cc(-c3ccc(F)cc3)[nH]c(=N)c2C#N)s1` [Compound 45, 6-(4-fluorophenyl)-2-imino-4-(5-methylthiophen-2-yl)-1,2-dihydropyridine-3-carbonitrile], the inhibition at 10 µM (read-out: % Inhibition) worked out at 37.5 ± 19.9%.
In the case of `N#Cc1c(-c2cccnc2)cc(-c2ccc(F)cc2)[nH]c1=N` [Compound 50, 6′-(4-fluorophenyl)-2′-imino-1′,2′-dihydro-[3,4′-bipyridine]-3′-carbonitrile], the inhibition at 10 µM turned out to be 10 ± 17.2%.
In the case of `N#Cc1c(-c2ccc(O)c(O)c2)cc(-c2cccnc2)[nH]c1=N` [Compound 7, 4-(3,4-dihydroxyphenyl)-6-imino-1,6-dihydro-[2,3′-bipyridine]-5-carbonitrile], the “% Inhibition” value worked out at 84.3 ± 1.11%. The inhibition at 10 µM (read-out: % Inhibition) amounted to 94.3%. Besides, the concentration for a half-maximal effect (EC50) (dose response, IL-4 inhibition) was 2.02 ± 0.97 µM.
The compound `N#Cc1c(-c2ccc(Cl)c(Cl)c2)cc(-c2ccc(F)cc2)[nH]c1=O` [Compound 34, 4-(3,4-dichlorophenyl)-6-(4-fluorophenyl)-2-oxo-1,2-dihydropyridine-3-carbonitrile] gave an inhibition at 10 µM of 44.2 ± 11.1%.
As to `COc1ccc(-c2cc(-c3ccc(F)cc3)[nH]c(=N)c2C#N)cc1O` [Compound 49, 6-(4-fluorophenyl)-4-(3-hydroxy-4-methoxyphenyl)-2-imino-1,2-dihydropyridine-3-carbonitrile], the inhibition at 10 µM was 82.2 ± 7.2%. Further, the EC50 (dose response, IL-4 inhibition) amounted to 4.02 ± 1.85 µM.
As to `N#CC1C(=O)N=C(c2ccc(-c3ccccc3)cc2)C=C1c1ccc(O)c(O)c1` (stereo not shown) [Compound 31, 6-([1,1′-biphenyl]-4-yl)-4-(3,4-dihydroxyphenyl)-2-oxo-2,3-dihydropyridine-3-carbonitrile], where the note is “read-out: % Inhibition”, the inhibition at 10 µM came out at 68.7 ± 9.84%.
`COc1cc(-c2cc(-c3ccc(F)cc3)[nH]c(=N)c2C#N)ccc1O` [Compound 48, 6-(4-fluorophenyl)-4-(4-hydroxy-3-methoxyphenyl)-2-imino-1,2-dihydropyridine-3-carbonitrile] returned an inhibition at 10 µM of 100 ± 0.49%. Further, the EC50 (dose response, IL-4 inhibition) is 8.4 µM and 6.4 µM.
Regarding `N#Cc1c(-c2ccc(O)c(O)c2)cc(-c2ccc(F)cc2)[nH]c1=O` [Compound 19, 4-(3,4-dihydroxyphenyl)-6-(4-fluorophenyl)-2-oxo-1,2-dihydropyridine-3-carbonitrile], the inhibition at 10 µM (read-out: % Inhibition) was found to be 71.2 ± 5.6%.

(Values after patent US20250313530A1, “SMALL MOLECULE INHIBITORS OF INTERLEUKIN-4 AND USES THEREOF” (Trustees of Boston University, priority 2024, published 2025).)
